Values of other authors as cited in patent publication EP3156049A1, “PHARMACEUTICAL COMPOSITION OF PRASUGREL” (Alembic Pharmaceuticals Limited, priority 2015, dated 2017).
Like-named read-outs stand apart in the source and are kept apart here.

CC(=O)Oc1cc2c(s1)CCN(C(C(=O)C1CC1)c1ccccc1F)C2.Cl (racemic) [Prasugrel hydrochloride, 5-[(1RS)-2-cyclopropyl-1-(2-fluorophenyl)-2-oxoethyl]-4,5,6,7-tetrahydrothieno [3,2-c] pyridin-2-yl acetate hydrochloride]
Solubility (pH 2): soluble
Solubility (pH 3 to 4): slightly soluble
Solubility (pH 6 to 7.5): practically insoluble
